According to patent US9125862B2, “Methods for the treatment of Prader-Willi-like syndrome or non-organic failure to thrive (NOFITT) feeding disorder using an agonist of the oxytocin receptor” (Institut National de la Sante et de la Rechereche Medicale …, priority 2010, dated 2015):

Test system: adult patients with PWS
Test: Behavioural grid scores after a single intranasal administration, double-blind placebo-controlled pilot study
Assay type: in vivo, human
Parameters: key to Change in behavioural scores: Depressive tendencies, Mean / Change in behavioural scores: Self-depreciation, Mean / Change in behavioural scores: Interest in love affair, Mean / Change in behavioural scores: Trust in others, Mean / Change in behavioural scores: Isolation tendencies, Mean / Change in behavioural scores: Sadness tendencies, Mean: grid score: negative = deterioration, positive = improvement
Description: The inventors designed a double-blind randomised, placebo-controlled pilot study (ClinicalTrials.gov Identifier: NCT01038570) to be conducted in a dedicated PWS centre, where patients are regularly admitted for one month and live in a controlled environment. Patients know they have no free access to food but no doubt about the time and the content of meals. For each stay, 16 patients with PWS are admitted and take part in daily planned occupational and physical group activities. They also receive medical care as needed and psychological support. The 24 patients included in this study (16 females, 8 males, median age 28.5 years [18.7 to 43.6], median BMI 43 kg/m2 [19.4 to 67.4]) were stratified on gender and IQ (median IQ=51 [45 to 75]). […] Patients as well as parents or caregivers gave their written consent prior to entering the study. Exclusion criteria were an abnormal ECG and other severe cardiovascular problems. Patients were well known to the team. Each pair of patients of the same gender and same IQ range was evaluated the same day. The two patients of the pair received either OT or placebo in a double-blind randomisation. Patients were included in the study over the course of three series of stays.
Each patient received a single intranasal administration of either placebo (saline solution) or OT (Syntocinon®/-Spray, Novartis, Basel, Switzerland) with three puffs per nostril (24 UI). The dose of 24 UI is the most frequently reported in the literature. […] This nurse knew neither the patients nor the study.
The behaviour of the patients was carefully monitored, scored daily by the team psychologist, and documented on the case report form for the two days before drug administration, on the half-day following administration (early effects) and over the two days following drug administration (late effects). Both the staff and the rater were unaware of treatment status. There are currently no validated grids that evaluate the specific behavioural features of patients with PWS that they particularly wanted to study, i.e. tendencies towards isolation, sadness, and depression, self-depreciation, self-mutilation, conflicts with others, disruptive behaviour, interest in friendship, interest in love affairs, and trust of others. For this reason, they used an in-house grid developed by the caregivers and based on the routine observation of these patients in this dedicated centre for PWS with recognized expertise (17, 18). The criteria that the staff used to fill in the grid are explained in Table 1. The patients were well known to the team but the mean behavior status was re-evaluated during the first week of admission using the same grid. The behavioural features of the patients were scored as unchanged, moderately changed, or severely changed. For each criterion, a negative score reflected deterioration in the mean behavior status of the patient while a positive score reflected an improvement. Eating behaviour was also scored using three categories: usual, better than usual or worse, based on the analysis of each meal. The following were evaluated: amount of food intake per meal, amount of food requested per meal, duration of meal, and behaviour before/during/after the meal. To evaluate the early effect of OT, we analysed only the first meal after drug administration.

[1] = 19 patients with deletions, P=0.05, data not shown
[2] = Early effect (half-day following administration), intranasal 24 UI
[3] = Late effect (mean of two days following administration), intranasal 24 UI
[4] = Pre-administration (mean of two days before), OT group baseline
[5] = pre-post difference (late effect score minus pre-administration score), OT group

CC[C@H](C)[C@@H]1NC(=O)[C@H](Cc2ccc(O)cc2)NC(=O)[C@@H](N)CSSC[C@@H](C(=O)N2CCC[C@H]2C(=O)N[C@@H](CC(C)C)C(=O)NCC(N)=O)NC(=O)[C@H](CC(N)=O)NC(=O)[C@H](CCC(N)=O)NC1=O [oxytocin]
effect on disruptive behaviour (19 patients with deletions (9 OT, 10 placebo), P=0.04, data not shown): significant effect
interest in friendship [1]: more interest in friendship
trust in others [1]: trend towards more trust in others
sadness tendencies (19 patients with deletions, P=0.07, data not shown): fewer sadness tendencies
Depressive tendencies score [2]: 0 ± 0
Disruptive behaviour score [2]: −0.167 ± 0.389
Interest in friendship score [2]: 0.917 ± 0.515
Interest in love affairs score [2]: 0.917 ± 0.515
Isolation tendencies score [2]: −0.083 ± 0.289
Sadness tendencies score [2]: −0.083 ± 0.289
Self-depreciation score [2]: −0.083 ± 0.289
Self-mutilation score [2]: −0.083 ± 0.289
Trust in others score [2]: 0.833 ± 0.389
Conflicts with others score [3]: −0.111 ± 0.205
Depressive tendencies score [3]: 0 ± 0
Interest in friendship score [3]: 1.028 ± 0.234
Interest in love affairs score [3]: 0.903 ± 0.411
Isolation tendencies score [3]: 0 ± 0
Self-depreciation score [3]: 0 ± 0
Self-mutilation score [3]: −0.083 ± 0.195
Conflicts with others score [4]: −0.319 ± 0.359
Depressive tendencies score [4]: −0.056 ± 0.192
Disruptive behaviour score [4]: −0.431 ± 0.344
Interest in friendship score [4]: 0.875 ± 0.433
Interest in love affairs score [4]: 0.972 ± 0.531
Isolation tendencies score [4]: −0.083 ± 0.289
Sadness tendencies score [4]: −0.194 ± 0.407
Self-depreciation score [4]: −0.056 ± 0.192
Self-mutilation score [4]: −0.278 ± 0.468
Trust in others score [4]: 0.861 ± 0.332
disruptive behaviour (excluding the seven patients on psychotropic medications, two days following administration, P=0.04, data not shown): less disruptive behaviour
Change in behavioural scores: Conflicts with others, Mean [5]: 0.208
Change in behavioural scores: Depressive tendencies, Mean [5]: 0.056
Change in behavioural scores: Interest in friendship, Mean [5]: 0.153
Change in behavioural scores: Interest in love affair, Mean [5]: −0.069
Change in behavioural scores: Isolation tendencies, Mean [5]: 0.083
Change in behavioural scores: Sadness tendencies, Mean [5]: 0.111
Change in behavioural scores: Self-depreciation, Mean [5]: 0.056
Change in behavioural scores: Trust in others, Mean [5]: 0.167
